Assay results taken from ChEMBL document CHEMBL1201862, “PubChem BioAssay data set” (2004).
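Five compound concentrations were applied to cells in 96-well plates for 48 hours; endpoints were derived by simple linear interpolation of the resulting dose-response curve. GI50: concentration for 50% inhibition of growth.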 Activity calls are given as the source filed them. Rule as the data show it: active = GI50 up to about 1.1 µM and inactive = higher.

Experiments:
Experiment in all cases: growth of human tumour cells (NCI), 48 h
[1] = test system: CAKI-1
[2] = test system: CCRF-CEM
[3] = test system: EKVX
[4] = test system: HCT-116
[5] = test system: HOP-92
[6] = test system: KM12
[7] = test system: Malme-3M
[8] = test system: OVCAR-5
[9] = test system: RXF 393
[10] = test system: SNB-19
[11] = test system: SR
[12] = test system: U-251
[13] = test system: UO-31
[14] = test system: SK-MEL-2

Measured: GI50

CC1CC(C)C(C(O)CC2CC(=O)N(c3ccccc3)C(=O)C2)C(O)C1 (stereo unspecified)
inactive: [1] > 100 µM | [2] > 100 µM | [3] > 100 µM | [4] > 100 µM | [5] > 100 µM | [6] > 100 µM | [7] > 100 µM | [8] > 100 µM | [9] > 100 µM | [10] > 100 µM | [11] > 100 µM | [12] > 100 µM | [13] > 100 µM

Cn1nc(-c2ccccc2)c(C(=O)/C=C/c2ccc(F)cc2)c(N2CCCCC2)c1=O
inactive: [1] 8.75 µM | [2] 2.61 µM | [3] 16.3 µM | [4] 3.31 µM | [5] 3.85 µM | [9] 2.53 µM | [10] 13.2 µM | [12] 5.74 µM | [13] 5.58 µM

CC(Oc1ccc2cc(C(=O)c3ccccc3)c(=O)oc2c1)C(=O)O (stereo unspecified)
inactive: [1] > 100 µM | [2] > 100 µM | [3] > 100 µM | [4] > 100 µM | [5] > 100 µM | [6] > 100 µM | [7] > 100 µM | [9] > 100 µM | [10] > 100 µM | [11] > 100 µM | [12] > 100 µM | [13] > 100 µM

CC1=C(C(=O)Nc2ccc([N+](=O)[O-])cc2)C(c2ccc3c(c2)OCO3)C(C(=O)Nc2ccc([N+](=O)[O-])cc2)=C(C)N1
inactive: [1] 23.7 µM | [3] 8.2 µM | [4] 10.1 µM | [5] 4.08 µM | [6] 3.8 µM | [7] 23.9 µM | [8] 59.7 µM | [9] 25.3 µM | [14] 6.68 µM | [10] > 100 µM | [11] 1.98 µM | [12] 30.1 µM | [13] 6.4 µM

CCOC(=N)CC(=O)Nc1ccccc1CC
inactive: [1] > 100 µM | [2] > 100 µM | [3] > 100 µM | [4] > 100 µM | [6] > 100 µM | [7] > 100 µM | [8] > 100 µM | [9] > 100 µM | [14] > 100 µM | [10] > 100 µM | [11] > 100 µM | [12] > 100 µM | [13] > 100 µM

NS(=O)(=O)c1cc2c(cc1Cl)NC(C(=O)NNC(=O)c1ccncc1)=NS2(=O)=O
inactive: [1] > 100 µM | [2] > 100 µM | [3] > 100 µM | [4] > 100 µM | [5] > 100 µM | [6] > 100 µM | [7] > 100 µM | [9] > 100 µM | [14] > 100 µM | [10] > 100 µM | [11] > 100 µM | [13] > 100 µM

CC(C)NCC(O)COC(=O)c1cccs1 (stereo unspecified)
inactive: [1] > 100 µM | [2] > 100 µM | [3] > 100 µM | [5] > 100 µM | [6] > 100 µM | [7] > 100 µM | [8] > 100 µM | [9] > 100 µM | [14] > 100 µM | [10] > 100 µM | [13] > 100 µM

CN1C(=O)C(=O)N2c3ccc(Cl)cc3C3(c4ccccc4)N=CC12O3 (stereo unspecified)
inactive: [1] 5.13 µM | [2] 3.03 µM | [3] 8.87 µM | [4] 3.9 µM | [5] 2.39 µM | [6] 3.55 µM | [7] 20 µM | [8] 6.93 µM | [9] 1.9 µM | [14] 6.01 µM | [10] 12.9 µM | [12] 9.48 µM | [13] 4.1 µM

O=c1c(O)c(-c2ccccc2)n(O)c2ccc(Cl)cc12
inactive: [1] 29.9 µM | [2] 23.9 µM | [4] 10.9 µM | [5] 34.6 µM | [6] 31.6 µM | [7] 60.1 µM | [8] 38.9 µM | [9] 23.1 µM | [14] 21.5 µM | [10] 34.2 µM | [11] 28.8 µM | [12] 25.8 µM | [13] 51.2 µM

CC(C(=O)n1nnc2ccccc21)N(c1ccccc1)c1ccccc1 (stereo unspecified)
inactive: [1] > 100 µM | [2] 83.4 µM | [3] 68.2 µM | [4] 89.5 µM | [7] 84.7 µM | [8] > 100 µM | [9] > 100 µM | [14] > 100 µM | [10] 48.3 µM | [11] 78.3 µM | [12] 43.5 µM | [13] > 100 µM

Cc1cc(=O)oc2cc(OCCCOc3ccc4c(C)cc(=O)oc4c3)ccc12
inactive: [2] > 100 µM | [3] > 100 µM | [4] > 100 µM | [7] > 100 µM | [9] > 100 µM | [14] > 100 µM | [10] 57.9 µM | [11] > 100 µM | [12] > 100 µM | [13] > 100 µM
